Test system: human normal peripheral blood monocyte
Test: Influence of the artificially synthesized peptide on normal cell genes: coculture 7 hr, DNA chip system (Clontech), about 55000 human genes (Table 4)
Type: cell-based
Details: Suppressed Gene, Immune System Gene
Experimental: (a) The peptide obtained in Example 3 was added to a human normal peripheral blood monocyte culture system (10 to 100 μg peptide/1×10^6 to 1×10^7 monocytes), and they were cocultured for 7 hr. Then, mRNA was extracted from the monocytes and was applied to analysis for up-regulation and down-regulation in respect to about 55000 human genes by using DNA chip system (Clontech).

[1] = Gene No. 12812, ovarian carcinoma immunoreactive antigen (OCIA)
[2] = Gene No. 14949, programmed cell death 10 (PDCD10), transcript variant 1
[3] = Gene No. 15907, intercellular adhesion molecule 2 (ICAM2)
[4] = Gene No. 15994, beta-2-microglobulin (B2M)
[5] = Gene No. 16478, tumor necrosis factor (ligand) superfamily, member 12 (TNFSF12), transcript variant 1, mRNA
[6] = Gene No. 16756, major histocompatibility complex, class I, E (HLA-E)
[7] = Gene No. 17177, tumor necrosis factor superfamily, member 5-induced protein 1 (TNFSF5IP1)
[8] = Gene No. 18139, major histocompatibility complex, class II, DQ alpha 1 (HLA-DQA1)
[9] = Gene No. 18884, (clone 38-1) MHC class I mRNA fragment.
[10] = Gene No. 20551, IL2-inducible T-cell kinase (ITK)
[11] = Gene No. 20881, natural killer cell transcript 4 (NK4)
[12] = Gene No. 21487, programmed cell death 2 (PDCD2), transcript variant 1
[13] = Gene No. 22326, immune associated nucleotide 2 (hIAN2)
[14] = Gene No. 22789, CASP8 and FADD-like apoptosis regulator (CFLAR)
[15] = Gene No. 22868, lymphocyte cytosolic protein 2 (SH2 domain containing leukocyte protein of 76 kDa) (LCP2)
[16] = Gene No. 22890, NK inhibitory receptor precursor (NKIR)
[17] = Gene No. 23827, major histocompatibility complex, class II, DM alpha (HLA-DMA)
[18] = Gene No. 24440, THYMUS cDNA clone CS0CAP007YL06 5-PRIME
[19] = Gene No. 24969, CD69 antigen (p60, early T-cell activation antigen) (CD69)
[20] = Gene No. 34736, adhesion molecule AMICA (AMICA)
[21] = Gene No. 37068, immediate early response 2 (IER2)
[22] = Gene No. 37445, mal, T-cell differentiation protein (MAL), transcript variant d
[23] = Gene No. 37834, proteasome (prosome, macropain) 26S subunit, non-ATPase, 1 (PSMD1)
[24] = Gene No. 38103, tumor necrosis factor receptor superfamily, member 7 (TNFRSF7)
[25] = Gene No. 38879, interferon stimulated gene 20 kDa (ISG20)
[26] = Gene No. 39926, thymosin-like 6 (TMSL6)
[27] = Gene No. 39991, lymphotoxin beta (TNF superfamily, member 3) (LTB), transcript variant 2
[28] = Gene No. 40727, linker for activation of T cells (LAT)
[29] = Gene No. 41726, apoptosis-associated speck-like protein containing a CARD (ASC), transcript variant 1
[30] = Gene No. 41803, programmed cell death 2 (PDCD2), transcript variant 2
[31] = Gene No. 41817, major histocompatibility complex, class I, F (HLA-F)
[32] = Gene No. 42474, programmed cell death 6 (PDCD6)
[33] = Gene No. 42573, T-cell activation protein (PGR1)
[34] = Gene No. 42614, killer cell lectin-like receptor subfamily K, member 1 (KLRK1)
[35] = Gene No. 42661, proteasome (prosome, macropain) subunit, beta type, 9 (large multifunctional protease 2) (PSMB9), transcript variant 1
[36] = Gene No. 42680, proteasome (prosome, macropain) 26S subunit, ATPase, 4 (PSMC4), transcript variant 1
[37] = Gene No. 42813, granzyme A (granzyme 1, cytotoxic T-lymphocyte-associated serine esterase 3) (GZMA)
[38] = Gene No. 43032, interferon, gamma-inducible protein 16 (IFI16)
[39] = Gene No. 45767, HLA-B associated transcript 1 (BAT1), transcript variant 1
[40] = Gene No. 46186, cell death-regulatory protein GRIM19 (GRIM19)
[41] = Gene No. 47689, killer cell lectin-like receptor subfamily B, member 1 (KLRB1)
[42] = Gene No. 47973, CD8 antigen, beta polypeptide 1 (p37) (CD8B1), transcript variant 5
[43] = Gene No. 49170, interferon gamma receptor 2 (interferon gamma transducer 1) (IFNGR2)
[44] = Gene No. 49586, interleukin-1 receptor-associated kinase 4 (IRAK4)
[45] = Gene No. 49622, intercellular adhesion molecule 3 (ICAM3)
[46] = Gene No. 51004, tumor necrosis factor (ligand) superfamily, member 10 (TNFSF10)
[47] = Gene No. 52071, interferon (alpha, beta and omega) receptor 1 (IFNAR1)
[48] = Gene No. 52342, apoptosis-related protein PNAS-1 (FLJ39616)
[49] = Gene No. 52539, major histocompatibility complex, class II, DR alpha (HLA-DRA)
[50] = Gene No. 53172, transforming growth factor, beta 1 (Camurati-Engelmann disease) (TGFB1)

the Peptide (QPQFGRRMESK; Human squamous cell carcinoma)
Suppression Ratio (Gene No. 11651, implantation-associated protein (DKFZp564K142)): 89.16 | Expression Amount after Treatment with the Peptide [1]: 24.53 | Suppression Ratio [1]: 47.97 | Expression Amount after Treatment with the Peptide [2]: 25.27 | Suppression Ratio [2]: 40.37 | Expression Amount after Treatment with the Peptide [3]: 6.364 | Suppression Ratio [3]: 143.4 | Expression Amount after Treatment with the Peptide [4]: 239.5 | Suppression Ratio [4]: 47.59 | Expression Amount after Treatment with the Peptide [5]: 6.018 | Suppression Ratio [5]: 110.2 | Expression Amount after Treatment with the Peptide [6]: 2.806 | Suppression Ratio [6]: 140.8 | Expression Amount after Treatment with the Peptide [7]: 26.16 | Suppression Ratio [7]: 39.51 | Expression Amount after Treatment with the Peptide [8]: 33.12 | Suppression Ratio [8]: 80.32 | Expression Amount after Treatment with the Peptide [9]: 3.387 | Suppression Ratio [9]: 100.2 | Expression Amount after Treatment with the Peptide [10]: 22.93 | Suppression Ratio [10]: 122.6 | Expression Amount after Treatment with the Peptide [11]: 38.17 | Suppression Ratio [11]: 172.9 | Expression Amount after Treatment with the Peptide [12]: 9.909 | Suppression Ratio [12]: 39.12 | Expression Amount after Treatment with the Peptide [13]: 9.743 | Suppression Ratio [13]: 113.2 | Expression Amount after Treatment with the Peptide [14]: 9.725 | Suppression Ratio [14]: 75.25 | Expression Amount after Treatment with the Peptide [15]: 6.525 | Suppression Ratio [15]: 82.73 | Expression Amount after Treatment with the Peptide [16]: 9.902 | Suppression Ratio [16]: 112.4 | Expression Amount after Treatment with the Peptide [17]: 29.78 | Suppression Ratio [17]: 80.72 | Expression Amount after Treatment with the Peptide [18]: 0.2348 | Suppression Ratio [18]: 59.63 | Expression Amount after Treatment with the Peptide [19]: 25.71 | Suppression Ratio [19]: 95.14 | Expression Amount after Treatment with the Peptide [20]: 29.08 | Suppression Ratio [20]: 136.7 | Expression Amount after Treatment with the Peptide [21]: 57.38 | Suppression Ratio [21]: 121.3 | Expression Amount after Treatment with the Peptide [22]: 14.875 | Suppression Ratio [22]: 112.4 | Expression Amount after Treatment with the Peptide [23]: 14.11 | Suppression Ratio [23]: 38.69 | Expression Amount after Treatment with the Peptide [24]: 5.778 | Suppression Ratio [24]: 121.8 | Expression Amount after Treatment with the Peptide [25]: 31.94 | Suppression Ratio [25]: 91.84 | Expression Amount after Treatment with the Peptide [26]: 317.7 | Suppression Ratio [26]: 54.8 | Expression Amount after Treatment with the Peptide [27]: 17.77 | Suppression Ratio [27]: 135.9 | Expression Amount after Treatment with the Peptide [28]: 28.17 | Suppression Ratio [28]: 42.75 | Expression Amount after Treatment with the Peptide [29]: 33.51 | Suppression Ratio [29]: 134.7 | Expression Amount after Treatment with the Peptide [30]: 0.82 | Suppression Ratio [30]: 108.8 | Expression Amount after Treatment with the Peptide [31]: 98.43 | Suppression Ratio [31]: 107.9 | Expression Amount after Treatment with the Peptide [32]: 17.04 | Suppression Ratio [32]: 68.35 | Expression Amount after Treatment with the Peptide [33]: 15.75 | Suppression Ratio [33]: 60.53 | Expression Amount after Treatment with the Peptide [34]: 4.848 | Suppression Ratio [34]: 129.2 | Expression Amount after Treatment with the Peptide [35]: 39.14 | Suppression Ratio [35]: 38.48 | Expression Amount after Treatment with the Peptide [36]: 42.03 | Suppression Ratio [36]: 38.46 | Expression Amount after Treatment with the Peptide [37]: 38.51 | Suppression Ratio [37]: 115.5 | Expression Amount after Treatment with the Peptide [38]: 4.446 | Suppression Ratio [38]: 116.8 | Expression Amount after Treatment with the Peptide [39]: 18.125 | Suppression Ratio [39]: 130.2 | Expression Amount after Treatment with the Peptide [40]: 25.55 | Suppression Ratio [40]: 55.07 | Expression Amount after Treatment with the Peptide [41]: 72.08 | Suppression Ratio [41]: 52.77 | Expression Amount after Treatment with the Peptide [42]: 9.639 | Suppression Ratio [42]: 153.6 | Expression Amount after Treatment with the Peptide [43]: 10.09 | Suppression Ratio [43]: 70.7 | Expression Amount after Treatment with the Peptide [44]: 2.716 | Suppression Ratio [44]: 91.49 | Expression Amount after Treatment with the Peptide [45]: 39.68 | Suppression Ratio [45]: 86.23 | Expression Amount after Treatment with the Peptide [46]: 8.725 | Suppression Ratio [46]: 39.65 | Expression Amount after Treatment with the Peptide [47]: 9.429 | Suppression Ratio [47]: 44.09 | Expression Amount after Treatment with the Peptide [48]: 18.72 | Suppression Ratio [48]: 64.11 | Expression Amount after Treatment with the Peptide [49]: 158.7 | Suppression Ratio [49]: 109.3 | Expression Amount after Treatment with the Peptide [50]: 6.56 | Suppression Ratio [50]: 88.02

Reference: patent publication US8173788B2, “Peptide having ability to activate cancer-related gene” (priority 2005, dated 2012)
